For data set [1] the following is noted: Crystal; DTA.
Data set [2] is described as follows: Molar enthalpy of transition or fusion. The settings on record: Crystal; DSC.

± gives the expanded uncertainty stated by the source.

As for `Cn1c(=O)c2[nH]cnc2n(C)c1=O` [3,7-dihydro-1,3-dimethyl-1H-purine-2,6-dione], the Normal melting temperature in data set [1] amounted to 272.03 ± 1.1 °C. Besides, the “Molar enthalpy of transition or fusion” value in data set [2] amounted to 6.91 ± 0.43 kcal/mol.

Source of the values: the NIST ThermoML archive (doi:10.1021/acs.jced.7b00065).
